Common to all, as to assay type: cell-based, Staphylococcus aureus
Test [1] concerns 48 h mature MRSA ATCC 33591 biofilms. The test can be described thus: Cell viability of 48 h mature biofilm embedded cells. The settings on record: 24 h treatment at 20 × MIC, mean ± S.D., two experiments, untreated 9.31 ± 0.11. The protocol: For enumeration of cells after 48 h incubation, the medium was aspirated and the biofilms were washed with PBS once. Then 200 μL PBS was added to each well of the chamber slide and the chambers were thoroughly scraped with a pipette tip. The bacterial suspension obtained was plated on BHI agar after dilution in PBS as described above. The resulting CFU/mL from two different days were counted and plotted as mean ± S.D.

In test [2] the test system is MRSA ATCC 33591. The test can be described thus: Cell viability corresponding to membrane depolarization experiment. The note with it: dye-loaded cells in HEPES-glucose buffer, 4 × MIC, 2 min incubation.
Protocol: Briefly, exponential phase cells grown in MHB were harvested by centrifugation, washed and re-suspended in respiration buffer (5 mM HEPES, 20 mM glucose, pH 7.2) to 2.5 × 10^6 CFU/mL. […] The dye-loaded cells (800 μL) were then treated with peptidomimetics at respective 1× and 4× MIC concentrations (2–20 μL) and consequent fluorescence increase after 2 min of addition was measured in a Shimadzu RF-5301 PC spectrofluorimeter. As controls IL, melittin and VAN were also assayed under identical conditions. […] The viability of dye-loaded cells corresponding to depolarization experiment at 4 × MIC concentration was also measured by plating the diluted aliquots onto BHI agar plates.
dye-loaded cells suspended in HEPES-glucose buffer (5 mM, 20 mM glucose, pH 7.2)
were incubated with different test agents for 2 min and subsequently diluted
appropriately and plated on BHI agar plates. The plates were incubated at 37 °C for 16-
18 h and colonies were counted. The experiment was repeated on two different days
and mean ± S.D. is presented here.
In test [3] the test system is stationary phase MRSA ATCC 33591. The test can be described thus: Bacterial killing kinetics, stationary phase cells in nutrient-depleted MHB medium. The note with it: 24 h. The protocol:
The kinetics of bacterial killing was determined against MRSA ATCC 33591 strain using drop plate method as described previously with slight modifications[51],[67],[70],[71]. The experiment was performed against exponential phase MRSA in normal medium and stationary phase MRSA in nutrient-depleted medium. For the preparation of nutrient-depleted medium, the primary MRSA ATCC 33591 culture in MHB medium was allowed to grow for 18 h at 37 °C and the cells were removed by centrifugation. The cell pellet was used for stationary phase culture and the spent medium supernatant was used as a nutrient-depleted medium. For obtaining exponential phase cells, MRSA was grown overnight in MHB and 100 μL suspension was used to inoculate 10 mL fresh MHB medium. The cells were incubated at 37 °C for 4–6 h to reach exponential phase.
For the experiments, both exponential and stationary phase cells were re-suspended separately in normal or nutrient-depleted mediums to OD600 = 0.5 (~10^8 CFU/mL). A 25 µL aliquot of this suspension was added to 475 μL of respective medium with or without test peptidomimetics/antibiotics in an eppendorf tube. […] The agar plates were incubated at 37 °C for 16–18 h and the colonies were counted (dilutions having colonies in the range of 10–100 were counted). […]

Test [4] deals with MRSA ATCC 33591. The test is described as follows: Resistance development over 17 serial passages at sub-MIC. The settings on record: at the 11th passage, constant up to the 17th passage. As to the method: For the experiment, a method as described previously was used with slight modifications. Briefly, for the experiment, on day 1 the initial MICs of all test agents were determined using routine MIC experiment protocol as described earlier. Next day, bacterial cells (100 μL) from the wells with concentrations 2–4 fold less than the MIC value for each test agent were used to set up fresh mid-log phase cultures in MHB medium for setting up the MIC plate. This was repeated for a total of 17 sub-lethal treatments with each antimicrobial agent. For every passage, corresponding glycerol stocks (15% v/v) were made for each culture and were kept at −80 °C for future use.

Another test relates to MRSA ATCC 33591 biofilm. The test can be described thus: Biofilm formation inhibition, alamar blue (AB) assay. The settings on record: 24 h biofilm formation inhibition, 2.5 μg/mL. As to the method: For the experiment, a protocol as described previously was used with slight modifications. Briefly, desired concentrations of the test agents in PBS were added to the wells of a 96-well plate (100 μL). Thereafter, overnight grown stationary phase MRSA ATCC 33591 culture (~4 × 10^5 CFU/mL) in TSB medium (supplemented with 0.25% glucose and 0.5% NaCl) was added to the 96-well plates (100 μL). The plates were incubated at 37 °C without shaking for 24 h. After 24 h, the used medium was discarded and the biofilms formed were washed with PBS once. Subsequently, CV and AB assays were performed to quantify biomass and viability respectively, as described below:
For AB assay, after washing the treated biofilms, a solution of 10% AB reagent in TSB medium (200 μL) was added to the wells of the plates. The plates were sonicated briefly in a bath sonicator (5 min) and kept at room temperature for 30 min in dark. After 30 min, fluorescence was measured by exciting the samples at 550 nm and collecting emission at 590 nm.
The experiments were repeated on two different days and on each day 6 wells were used for a single treatment. Mean ± S.E. for both CV assay and AB assay is presented here. Corresponding to CV and AB assay the viability of cells upon treatment was also evaluated. […] The agar plates were incubated at 37 °C for 16–24 h and CFUs were counted. […]

As to `CN[C@H](CC(C)C)C(=O)N[C@H]1C(=O)N[C@@H](CC(N)=O)C(=O)N[C@H]2C(=O)N[C@H]3C(=O)N[C@H](C(=O)N[C@H](C(=O)O)c4cc(O)cc(O)c4-c4cc3ccc4O)[C@H](O)c3ccc(c(Cl)c3)Oc3cc2cc(c3O[C@@H]2O[C@H](CO)[C@@H](O)[C@H](O)[C@H]2O[C@H]2C[C@](C)(N)[C@H](O)[C@H](C)O2)Oc2ccc(cc2Cl)[C@H]1O` [VAN, vancomycin], the “number of surviving cells” value in test [1] was determined as 9.08 ± 0.11 log CFU/mL. Moreover, the “log reduction in viability relative to untreated control” value in the test on MRSA ATCC 33591 [2] is 0.6 log. For the same molecule, the “log reduction in CFU/mL” value in test [3] (4 × MIC) and in test [3] (10 × MIC) was ~ 1.1 log throughout. Besides, the “fold increase in MIC” value in the test on MRSA ATCC 33591 [4] was determined as 8 fold. For the same molecule, in the test with MRSA ATCC 33591 biofilm, the “% viable cells compared to untreated control (AB assay)” value was < 1%.
